PubChem BioAssay (NCI)
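Test compounds were applied to cells in 96-well plates for 48 hours at 5 doses. TGI marks complete inhibition of growth.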

Key:
Experiment in all cases: NCI-60 cell line screen, 48 h
[1] = system: 786-0 renal
[2] = system: BT-549 breast
[3] = system: CCRF-CEM leukemia
[4] = system: HL-60(TB) leukemia
[5] = system: IGROV1 ovarian
[6] = system: MDA-MB-231 breast
[7] = system: MDA-N
[8] = system: MOLT-4 leukemia
[9] = system: NCI-H23 lung
[10] = system: NCI/ADR-RES ovarian
[11] = system: SW-620 colon
[12] = system: T-47D breast

SMILES: COc1cc(O)c(C(=O)/C=C/c2ccc(O)cc2)cc1Oc1ccc(C(=O)/C=C/c2ccc(O)cc2)c(O)c1
- TGI [1]: 5.73 µM
- TGI [2]: 9.19 µM
- TGI [3]: 33.8 µM
- TGI [4]: > 100 µM
- TGI [5]: 3.9 µM
- TGI [6]: 9.75 µM
- TGI [7]: 12.1 µM
- TGI [8]: > 100 µM
- TGI [9]: 8.88 µM
- TGI [10]: 9.55 µM
- TGI [11]: 11 µM
- TGI [12]: 8.86 µM

SMILES: COc1ccc(N(C(=O)OC(C)(C)C)[C@@H]2C(C)=C[C@H]([S@@](=O)c3ccc(C)cc3)[C@@H]3C(=O)N(C)C(=O)[C@@H]32)cc1
- TGI [1]: 37.9 µM
- TGI [2]: 33.9 µM
- TGI [3]: > 100 µM
- TGI [4]: 47.5 µM
- TGI [5]: 23.1 µM
- TGI [6]: 46.4 µM
- TGI [7]: 40.8 µM
- TGI [8]: 94.6 µM
- TGI [9]: 45.7 µM
- TGI [10]: 52.1 µM
- TGI [11]: 45.5 µM
- TGI [12]: 99.8 µM

SMILES: COc1cccc(-n2nnc3c(N)nc(N)nc32)c1
- TGI [1]: > 100 µM
- TGI [2]: > 100 µM
- TGI [3]: > 100 µM
- TGI [4]: > 100 µM
- TGI [5]: > 100 µM
- TGI [6]: > 100 µM
- TGI [7]: > 100 µM
- TGI [8]: > 100 µM
- TGI [9]: 76.3 µM
- TGI [10]: > 100 µM
- TGI [11]: > 100 µM
- TGI [12]: > 100 µM

SMILES: Cc1ccc(Nc2ncnc3sc(SCc4ccccc4)nc23)cc1
- TGI [1]: > 100 µM
- TGI [2]: > 100 µM
- TGI [3]: > 100 µM
- TGI [4]: > 100 µM
- TGI [5]: > 100 µM
- TGI [6]: > 100 µM
- TGI [7]: > 100 µM
- TGI [8]: > 100 µM
- TGI [9]: > 100 µM
- TGI [10]: > 100 µM
- TGI [11]: > 100 µM
- TGI [12]: > 100 µM

SMILES: Cc1cc(SCC(=O)c2ccc(Br)cc2)cc(C)[o+]1
- TGI [1]: > 100 µM
- TGI [2]: 98.4 µM
- TGI [3]: 44 µM
- TGI [4]: 33.8 µM
- TGI [5]: > 100 µM
- TGI [6]: 98.1 µM
- TGI [7]: > 100 µM
- TGI [8]: 56.2 µM
- TGI [9]: > 100 µM
- TGI [10]: 88.3 µM
- TGI [11]: > 100 µM
- TGI [12]: 48.8 µM
